Reference: patent publication EP2656853A1, “METHOD FOR TREATING ACUTE CEREBRAL AND SPINAL BLOOD FLOW DISORDERS OF AN ISCHAEMIC OR HA[…]” (Zakrytoe Aktsionernoe Obschestvo "Pharm-Sintez", priority 2010, dated 2012)

Assays:
murine bone marrow cells [1] = conditions: positive control, 20 mg/kg intraperitoneally, male mice
Description: The Study purpose is to reveal and quantitatively assess the cytogenetic activity (mutagenicity) of the pharmacologic drugs in the mammalian bone marrow polychromatophils. The method's base is the micronuclei cells microscopic registration.
The experimental used the male and female F1(CBAx C57BI6/J) hybrid mice, two-month age, 18 to 20 grams body weight. Every group included 6 animals. The animals were kept under the 12-hour light regime, with freely available water and feed. The single and five fold administration protein-polypeptide complex mutagenicity assessment animal experiments were in compliance with the official protocols. Three experimental series with relevant controls were performed: therapeutic dosage: males, single administration; subtoxic dosage: males, single administration; and therapeutic dosage: males and females, five fold administration. […]
(§1) The bone marrow cells preparations for the micronuclei account were made in conventional manner, in accordance with the "Micronuclear Test Environmental Factors Mutagenicity Assessment in Mammalian Organs Cells" Guidelines. […] 2000 polychromatophils per animal were then analyzed with coded preparations. At the 500 erythrocytes count the polychromatophil to normochromatic erythrocytes ratio was determined.

murine bone marrow cells [2] = conditions: positive control, 20 mg/kg intraperitoneally, male mice; remark: listed apart in the source
Description: The Study purpose was to reveal and quantitatively assess the cytogenetic activity (mutagenicity) of the pharmacologic drugs in the mammalian bone marrow polychromatophils. The method's base is the micronuclei cells microscopic registration.
The experimental used the male and female F1(CBAx C57BI6/J) hybrid mice, two-month age, 18 to 20 grams body weight. Every group included 6 animals. The animals were kept under the 12-hour light regime, with freely available water and food. The single and five fold administration protein-polypeptide complex mutagenicity assessment animal experiments were in compliance with the official protocols. Three experimental series with relevant controls were performed: therapeutic dosage: males, single administration; subtoxic dosage: males, single administration; and therapeutic dosage: males and females, five fold administration. […]
as §1

In the case of `O=P1(N(CCCl)CCCl)NCCCO1` (stereo not shown) [cyclophosphamide], the “higher micronuclei cells count vs. control” value (murine bone marrow cells [1]) is reported as 19.6 fold, the micronuclei cells count (murine bone marrow cells [1]; control 3.16‰) is reported as 62.1 ‰ and the “higher micronuclei cells vs. control” value (murine bone marrow cells [2]) is reported as 19.6 fold. For the same compound, the micronuclei cells (murine bone marrow cells [2]; control 3.16‰) was 62.1 ‰.
